From US6362188B1, “Farnesyl protein transferase inhibitors” (Schering Corporation, priority 1998, dated 2002)

Legend:
[1] = system: Human tumor cells; assay: Soft Agar Assay (anchorage-independent growth); format: cell-based; conditions: colony outgrowth in soft agar, stated as a range for the group
How it was run: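 Tumor cells suspended in 0.3% agarose over a 0.6% agarose base, both layers containing the same farnesyl transferase inhibitor concentration. Incubated 10-16 days at 37° C, 5% CO2; colonies stained with MTT (1 mg/mL in PBS) and counted, IC50 determined.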

IC50 [1] [nM] | melting point | Structure (SMILES)
0.05 to 30 | 121 to 126 °C | Cc1cn(C[C@@H]2CCCN(C(=O)[C@H]3CN([C@H]4c5ccccc5CCc5cc(F)cnc54)CCN3C(=O)OC3CCCCC3)C2)cn1 [Example 383]
0.05 to 30 | 104 to 111 °C | Cc1cn(C[C@@H]2CCCN(C(=O)[C@H]3CN([C@@H]4c5ccccc5CCc5cc(F)cnc54)CCN3C(=O)OC3CCCCC3)C2)cn1 [Example 384]
0.05 to 30 | 113 to 115 °C | O=C(C1CN(C2c3ccc(Cl)cc3CCc3cccnc32)CCN1C(=O)OC1CCCCC1)N1CCCC(Cc2cnc[nH]2)C1 (centres unmarked) [47(I)]
0.05 to 30 | 175 °C (dec.) | Cc1cn(C[C@@H]2CCCN(C(=O)[C@H]3CN([C@H]4c5ccc(Cl)cc5CCc5cccnc54)CCN3C(=O)Cc3cc[n+]([O-])cc3)C2)cn1 [Example 412]

Further lines, the molecule ahead of its results:

Structure (SMILES) | IC50 [1] [nM] | melting point
Cc1cn(CC2CCCN(C(=O)C3CN(C4c5ccccc5CCc5cc(Br)cnc54)CCN3C(=O)OC3CCCCC3)C2)cn1 (centres unmarked) [Example 354] | 0.05 to 30 | 124 to 128 °C
Cc1cn(C[C@@H]2CCCN(C(=O)[C@H]3CN([C@H]4c5ccccc5CCc5cc(Cl)cnc54)CCN3C(=O)OC3CCCCC3)C2)cn1 [Example 319] | 0.05 to 30 | 114 to 118 °C
Cc1cn(C[C@@H]2CCCN(C(=O)[C@H]3CN([C@@H]4c5ccccc5CCc5cc(Br)cnc54)CCN3C(=O)OC3CCCCC3)C2)cn1 [Example 352] | 0.05 to 30 | 122 to 125 °C
